Experimental data reported in publication PMC9521028, “Lengthening the Guanidine–Aryl Linker of Phenylpyrimidinylguanidines Increases Their Potency as Inhibitors of FOXO3-Induced Gene Transcription” (ACS Omega, 2022).
In brackets after ≈: the same amount, converted by molar mass.

Key:
[1] = Estimation of compound solubility in water (saturated solution, UV-vis); assay type: physicochemical; conditions: for solubility at 48 h: aqueous buffer, thermodynamic from solid, 20 mM phosphate (pH 6.5) and 50 mM KCl buffer at 23 °C
Protocol: To estimate the solubility, we prepared saturated solutions of the compounds by adding 5 mg of each selected compound to 700 μL of 20 mM phosphate buffer (pH 6.5) containing 50 mM KCl. After 48 h of gentle agitation at room temperature (RT), the solutions were spun down, and the supernatant was filtered through 0.2 μm of SPARTAN 13/0.2 RC filter units (Merck KgaA, Darmstadt, Germany) and diluted 100–200× in the same phosphate buffer. The diluted solutions were transferred into the quartz cuvette, recording UV–vis absorption spectra in the range from 200 to 600 nm on a UV-1800 UV/visible scanning spectrophotometer (Shimadzu, Kyoto, Japan) at room temperature. The compound concentrations were estimated by the single point calibration using the absorption at wavelengths higher than 240 nm outside of DMSO absorption of 2000× diluted 50 mM DMSO-dissolved stock solution in phosphate buffer.

[2] = test system: FOXO3 binding to the promoter region of DEPP1 in SH-EP/FOXO3 cells; test: DEPP1-luciferase reporter assay of FOXO3 transcriptional activity; assay type: cell-based; conditions: for potency in blocking FOXO3 binding to the promoter region of DEPP1, compared with 5ca: initial screen, 50 μM compound; for inhibitory potency on target gene activation by FOXO3 (in words): summary of the reporter data, Figures 2, S2, S3; for potency in blocking FOXO3 binding to the promoter region of DEPP1: 25 and 12.5 μM compound
Protocol: The ability of these compounds to inhibit FOXO3 transcriptional activity was further examined by assessing their effect on FOXO3 binding to the promoter region of decidual protein induced by progesterone 1 (DEPP1) after transfecting a DEPP1-luciferase reporter plasmid into SH-EP neuroblastoma cells stably expressing a 4-hydroxy-tamoxifen (4OHT)-regulated FOXO3(A3)ERtm transgene. […] In parallel, the toxicity of the compounds was tested by assessing their effect on endogenous DEPP1 and actin promoters in SH-EP cells.
Transcriptional activation of the DEPP1 promoter by conditional FOXO3 was assessed after transfection of a DEPP1-luciferase reporter plasmid pGS c10orf10 Prom wt (DEPP1-LUC)[20] into SH-EP/FOXO3 cells using the JetPrime reagent (Polyplus, Berkeley). After 24 h of transfection, mTFP fluorescent protein expression from a cotransfected expression vector was assessed by live cell fluorescence microscopy to verify equal transfection rates before seeding cells into 24-well plates. After 48 h of transfection, the cells were pretreated with indicated concentrations of each compound (30 min) before adding 100 nM 4-hydroxy-tamoxifen (4OHT) for 3 h to activate ectopic FOXO3. Firefly-luciferase was analyzed using the Luciferase Assay System (Promega, Madison). Luminescence intensity was measured in a Hidex Chameleon—Multilabel Microplate Reader (Hidex, Turku, Finland).

Compound	solubility at 48 h [1]	solubility in water (in words) [1]	potency in blocking FOXO3 binding to the promoter region of DEPP1, compared with 5ca [2]	inhibitory potency on target gene activation by FOXO3 (in words) [2]	potency in blocking FOXO3 binding to the promoter region of DEPP1 [2]
CCCOc1ccc(NC(=N)Nc2nc(C)cc(O)n2)cc1 [5aa, 1-(4-Hydroxy-6-methylpyrimidin-2-yl)-3-(4-propoxyphenyl)guanidine]	0.1 mM (≈ 30.1 µg/mL)				
CCCOc1ccc(NC(=N)Nc2nc(C)cc(Cl)n2)cc1 [5ba, 1-(4-Chloro-6-methylpyrimidin-2-yl)-3-(4-propoxyphenyl)guanidine]	20 mM (≈ 6400 µg/mL)		more potent than 5ca		
Cc1cc(C)nc(NC(=N)Nc2ccccc2)n1 [5cb, 1-(4,6-Dimethylpyrimidin-2-yl)-3-phenylguanidine]	4 mM (≈ 965 µg/mL)	insufficient solubility in water	less potent FOXO3 inhibitors than 5ca	lower ability to inhibit FOXO3	
Cc1cc(C)nc(NC(=N)NCc2ccccc2)n1 [5cc, 1-Benzyl-3-(4,6-dimethylpyrimidin-2-yl)guanidine]	10 mM (≈ 2550 µg/mL)	significantly increased solubility in water	less potent FOXO3 inhibitors than 5ca	lower ability to inhibit FOXO3	
Cc1ccc(CNC(=N)Nc2nc(C)cc(C)n2)cc1 [5cd, 1-(4,6-Dimethylpyrimidin-2-yl)-3-(4-methylbenzyl)guanidine]	7 mM (≈ 1890 µg/mL)	improved solubility		did not increase the inhibitory potency	
Cc1cccc(CNC(=N)Nc2nc(C)cc(C)n2)c1 [5ce, 1-(4,6-Dimethylpyrimidin-2-yl)-3-(3-methylbenzyl)guanidine]	4 mM (≈ 1080 µg/mL)		less potent FOXO3 inhibitors than 5ca	did not increase the inhibitory potency	
Cc1cc(C)nc(NC(=N)NCc2ccccc2C)n1 [5cf, 1-(4,6-Dimethylpyrimidin-2-yl)-3-(2-methylbenzyl)guanidine]	2 mM (≈ 539 µg/mL)			did not increase the inhibitory potency	

Further lines, with some results ahead:

solubility at 48 h [1]	solubility in water (in words) [1]	Compound	potency in blocking FOXO3 binding to the promoter region of DEPP1, compared with 5ca [2]	inhibitory potency on target gene activation by FOXO3 (in words) [2]	potency in blocking FOXO3 binding to the promoter region of DEPP1 [2]
0.2 mM (≈ 62.3 µg/mL)	limited the solubility	Cc1cc(C)nc(NC(=N)NCc2ccc(C(C)(C)C)cc2)n1 [5cg, 1-(4-(tert-Butyl)benzyl)-3-(4,6-dimethylpyrimidin-2-yl)guanidine]	more potent than 5ca	increased FOXO3 inhibition	the most potent compounds
6 mM (≈ 1640 µg/mL)	sufficient solubility in water	Cc1cc(C)nc(NC(=N)NCc2ccc(F)cc2)n1 [5ch, 1-(4,6-Dimethylpyrimidin-2-yl)-3-(4-fluorobenzyl)guanidine]	less potent FOXO3 inhibitors than 5ca	did not increase the inhibitory potency	
0.2 mM (≈ 78.1 µg/mL)		CCCOc1ccc(NC(=N)Nc2nc(C)cc(NCc3ccccc3)n2)cc1 [5da, 1-(4-(Benzylamino)-6-methylpyrimidin-2-yl)-3-(4-propoxyphenyl)guanidine]	more potent than 5ca		the most potent compounds
1.7 mM (≈ 606 µg/mL)	low solubility	CCCCNc1cc(C)nc(NC(=N)Nc2ccc(OCCC)cc2)n1 [5dc, 1-(4-(Butylamino)-6-methylpyrimidin-2-yl)-3-(4-propoxyphenyl)guanidine]	more potent than 5ca	slightly lower inhibitory efficacy than 5cj, 5ci, and 5db	the most potent compounds
